# Experimental data reported in patent US9994525B2, “H3 antagonists containing phenoxypiperidine core structure” (RICHTER GEDEON NYRT., priority 2013, dated 2018).
# Where a name gives a salt, the structure may show the parent alone.
# Assays:
# [1] = cited from earlier work
# [2] = molecular target: hERG potassium channel (Homo sapiens (Human), UniProt Q12809); conditions: cited from earlier work
# [3] = molecular target: rat histamine H3 receptors (Rattus norvegicus (Rat), UniProt Q9QYN8); assay: rat histamine H3 receptor in vitro binding assay, N-α-[Methyl-3H]methylhistamine radioligand, rat cortex membrane; conditions: 1 nM radioligand, read-out: rH3 Ki
# Method: The in vitro affinity of the compounds of the present invention for rat histamine H3 receptors can be determined according to the following procedure.
# The rat histamine H3 receptor membrane was prepared as previously described by Witte et al. (British Journal of Pharmacol. 1-14, 2006). Male Sprague-Dawley rats were decapitated, their brains were removed and the cortex was isolated. The obtained tissues were homogenized in Tris-EDTA buffer (50 mM Tris-HCl, pH 7.4, 5 mM EDTA, 2 aprotinin, 1 mM benzamidine, 2 μg/ml leupeptin, 1 pepstatin) by a blender homogenizer (Ultra-Turrax). The homogenate was centrifuged at 40000 g for 20 min at 4° C. The membrane pellets were further purified by repeating the above homogenization and centrifugation steps. Final membrane preparations were obtained by rehomogenizing the pellets in 1:10 ratio in Tris-EDTA buffer (50 mM Tris-HCl, pH 7.4, 5 mM EDTA). The so obtained membrane preparation was divided into aliquots, flash frozen and stored at −80° C. until use. Protein content was determined by Lowry method using bovine serum albumin (BSA) as standard.
# Receptor binding assays were performed in at least 5 concentrations, with two parallel samples in each concentrations, in at least two independent experiments using the binding buffer (50 mM Tris-HCl, pH 7.4, 5 mM MgCl2), rat H3 membrane (140 μg protein/tube), and N-α-[Methyl-^3H]methylhistamine dihydrochloride (1 nM) as radioligand. Non-specific binding was determined in the presence of 10 μM thioperamide. The samples were incubated in a final volume of 0.50 ml for 30 min at 25° C. Binding reactions were terminated by rapid filtration through UniFilter® GF/B™ fiber glass filters presoaked for at least 2 h in 0.5% polyethylene imine (PEI). The filterplates were washed nine times with 0.5 ml of ice-cold washing buffer (50 mM Tris-HCl, pH 7.4, 5 mM MgCl2, 10 μg/ml saponine). The filterplates were dried at 50° C. for 45 min and 40 μl of Microscint20 (Packard) scintillation cocktail was added to each well. Filters radioactivity was determined by TopCount (Packard) scintillation counter.
# The ligand displacement by the compounds of the present invention was determined in at least two parallel experiments. The specific radioligand binding was defined as the difference between the total binding and the non-specific binding determined in the presence of excess of unlabelled ligand or test compounds used to specifically displace the radioligand. Results were expressed as a percent inhibition of specific binding obtained in the presence of test compounds. IC50 values were calculated from concentration-displacement curves by sigmoidal fitting using GraphPad Prism Software 4.0. Inhibition constants (Ki values) were calculated using the Cheng-Prusoff equation (Cheng Y C and Prusoff W H (1973) Biochem Pharmacol 22:3099-3108).
# The affinity at rat H3 receptors of compounds of the present invention is illustrated by the following table.
# [4] = tested on: extracellular acetylcholine (ACh) levels; assay: cerebral microdialysis, extracellular acetylcholine (ACh) levels in prefrontal cortex and hippocampus; assay type: in vivo, male Wistar rats; conditions: rats
# From the text: (§1) Prefrontal cortex and hippocampus, the two brain regions play important roles in cognition processes. Both histamine (HA) and acetylcholine (ACh) are transmitters playing important roles in cognition. The hypofunction of the central cholinergic and histaminergic systems is considered one of the pathogenic causes of the cognitive deficits characterizing dementias. Alterations in the extracellular levels of HA and ACh were investigated after single and simultaneous treatment with histamine H3 antagonists and acetylcholine esterase inhibitors (AChEIs) in the prefrontal cortex and hippocampus of conscious, freely moving male Wistar rats (4-6 animals/group) by cerebral microdialysis technique.
# (§2) Microdialysis probes were implanted in the medial prefrontal cortex (MPFC) and hippocampus (HC), and perfused with artificial AChEI-free cerebrospinal fluid (aCSF). Compounds examined in the present study were administered in 1% hydroxypropyl-methylcellulose (HPMC) and 5% polyoxiethelen(8)-sorbitane-monooleat (Tween 80) into the stomach via surgically implanted catheter.
# (§3) Thirty-min samples were collected and the temporal changes in the extracellular ACh and histamine HA were followed by high-sensitivity and selectivity liquid chromatography coupled with mass spectrometry/mass spectrometry (LC-MS/MS) analytical method. […]
# [5] = tested on: extracellular histamine (HA) levels; assay: cerebral microdialysis, extracellular histamine (HA) levels in prefrontal cortex and hippocampus; assay type: in vivo, male Wistar rats; conditions: rats
# From the text: as §1, §2, §3
# [6] = rat, in vivo
# [7] = single treatment, 0.5 and 1 mg/kg into the stomach, MPFC and HC
# Chain of rat histamine H3 receptors (Q9QYN8 whole entry): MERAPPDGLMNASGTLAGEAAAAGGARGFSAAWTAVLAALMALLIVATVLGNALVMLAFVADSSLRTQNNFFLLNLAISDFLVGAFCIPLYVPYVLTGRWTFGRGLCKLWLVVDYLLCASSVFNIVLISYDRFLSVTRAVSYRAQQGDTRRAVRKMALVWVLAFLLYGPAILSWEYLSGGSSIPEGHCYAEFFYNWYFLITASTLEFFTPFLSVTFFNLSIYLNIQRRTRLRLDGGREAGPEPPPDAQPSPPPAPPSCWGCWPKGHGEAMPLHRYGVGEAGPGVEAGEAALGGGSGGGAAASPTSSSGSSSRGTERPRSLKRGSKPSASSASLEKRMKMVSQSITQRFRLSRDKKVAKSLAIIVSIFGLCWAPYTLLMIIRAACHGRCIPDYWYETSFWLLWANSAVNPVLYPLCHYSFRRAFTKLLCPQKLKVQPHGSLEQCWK
# Chain of hERG potassium channel (Q12809 whole entry): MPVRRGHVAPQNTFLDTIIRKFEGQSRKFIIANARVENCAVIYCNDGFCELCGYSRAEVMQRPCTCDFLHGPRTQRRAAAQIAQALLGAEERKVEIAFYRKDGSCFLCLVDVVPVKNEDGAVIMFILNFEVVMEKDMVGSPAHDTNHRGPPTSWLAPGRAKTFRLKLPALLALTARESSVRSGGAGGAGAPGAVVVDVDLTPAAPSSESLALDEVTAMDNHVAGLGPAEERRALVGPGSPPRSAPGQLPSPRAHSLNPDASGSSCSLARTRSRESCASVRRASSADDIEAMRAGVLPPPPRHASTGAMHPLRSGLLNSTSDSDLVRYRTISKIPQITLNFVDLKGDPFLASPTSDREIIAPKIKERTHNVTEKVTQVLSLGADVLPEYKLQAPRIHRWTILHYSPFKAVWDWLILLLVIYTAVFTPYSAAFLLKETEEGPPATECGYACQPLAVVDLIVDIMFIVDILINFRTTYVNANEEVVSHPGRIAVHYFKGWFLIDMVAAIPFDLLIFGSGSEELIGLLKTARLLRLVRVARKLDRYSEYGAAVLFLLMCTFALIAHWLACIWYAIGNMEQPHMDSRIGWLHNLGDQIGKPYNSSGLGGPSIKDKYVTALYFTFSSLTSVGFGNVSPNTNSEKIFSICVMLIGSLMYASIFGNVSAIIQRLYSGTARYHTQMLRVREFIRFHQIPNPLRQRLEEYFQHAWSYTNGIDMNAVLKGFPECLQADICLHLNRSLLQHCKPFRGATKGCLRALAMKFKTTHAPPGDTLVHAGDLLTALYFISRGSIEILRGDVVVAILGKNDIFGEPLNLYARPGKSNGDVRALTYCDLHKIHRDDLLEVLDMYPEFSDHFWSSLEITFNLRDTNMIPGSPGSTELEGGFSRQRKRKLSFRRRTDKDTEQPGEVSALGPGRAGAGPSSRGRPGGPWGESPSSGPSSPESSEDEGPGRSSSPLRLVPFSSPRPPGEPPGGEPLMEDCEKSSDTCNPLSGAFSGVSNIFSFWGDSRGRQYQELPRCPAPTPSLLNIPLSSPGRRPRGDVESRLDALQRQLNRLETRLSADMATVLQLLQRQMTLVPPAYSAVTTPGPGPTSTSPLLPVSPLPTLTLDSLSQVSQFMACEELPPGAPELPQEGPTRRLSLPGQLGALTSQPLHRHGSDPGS
Ki [3],SMILES,also measured
< 10 nM,"CC(=O)N1CCC(Oc2ccc(OCCCN3CCCCC3)cc2)CC1 [Example 3, 1-(4-{4-[3-(piperidin-1-yl)-propoxy]-phenoxy}-piperidin-1-yl)-ethanone hydrochloride salt]",–
10 to 50 nM,"CCNC(=O)N1CCC(Oc2ccc(OCCCN3CCCCC3)cc2)CC1 [Example 7, N-ethyl-4-{4-[3-(piperidin-1-yl)-propoxy]-phenoxy}-piperidine-1-carboxamide]",–
10 to 50 nM,"CCN(C)C(=O)N1CCC(Oc2ccc(OCCCN3CCCCC3)cc2)CC1 [Example 8, N-ethyl-N-methyl-4-{4-[3-(piperidin-1-yl)-propoxy]-phenoxy}-piperidine-1-carboxamide hydrochloride salt]",–
10 to 50 nM,"C[C@@H]1CCCN1CCCOc1ccc(OC2CCN(C(=O)OC(C)(C)C)CC2)cc1 [Example 9, 4-(4-{3-[(2R)-2-methyl-pyrrolidin-1-yl]-propoxy}-phenoxy)-piperidine-1-carboxylic acid tert-butyl ester]",–
< 10 nM,"C[C@@H]1CCCN1CCCOc1ccc(OC2CCNCC2)cc1 [Example 10, 4-(4-{3-[(2R)-2-methyl-pyrrolidin-1-yl]-propoxy}-phenoxy)-piperidine dihydrochloride salt]",–
< 10 nM,"C[C@@H]1CCCN1CCCOc1ccc(OC2CCN(C(=O)C3CCC3)CC2)cc1 [Example 12, cyclobutyl-[4-(4-{3-[(2R)-2-methylpyrrolidin-1-yl]-propoxy}-phenoxy)-piperidin-1-yl]-methanone hydrochloride salt]",–
< 10 nM,"C[C@@H]1CCCN1CCCOc1ccc(OC2CCN(C(=O)C3(C)CC3)CC2)cc1 [Example 13, (1-methyl-cyclopropyl)-[4-(4-{3-[(2R)-2-methyl-pyrrolidin-1-yl]-propoxy}-phenoxy)-piperidin-1-yl]-methanone hydrochloride salt]",–
< 10 nM,"CCOC(=O)N1CCC(Oc2ccc(OCCCN3CCC[C@H]3C)cc2)CC1 [Example 14, ethyl-4-(4-{3-[(2R)-2-methyl-pyrrolidin-1-yl]-propoxy}-phenoxy)-piperidine-1-carboxilate hydrochloride salt]",–
< 10 nM,"CCNC(=O)N1CCC(Oc2ccc(OCCCN3CCC[C@H]3C)cc2)CC1 [Example 15, N-ethyl-4-(4-{3-[(2R)-2-methyl-pyrrolidin-1-yl]-propoxy}-phenoxy)-piperidine-1-carboxamide]",–
< 10 nM,"CCN(C)C(=O)N1CCC(Oc2ccc(OCCCN3CCC[C@H]3C)cc2)CC1 [Example 16, N-ethyl-N-methyl-4-(4-{3-[(2R)-2-methyl-pyrrolidin-1-yl]-propoxy}-phenoxy)-piperidine-1-carboxamide hydrochloride salt]",–

# Further lines, the molecule ahead of its results:
SMILES,Ki [3],also measured
C[C@@H]1CCCN1CCc1cc2cc(-c3ccc(C#N)cc3)ccc2o1 [ABT-239],–,"plasma protein binding [1]: High; cardiovascular side-effects, interaction with the hERG potassium channel [2]: interaction with the hERG potassium channel"
"CC(C)(C)OC(=O)N1CCC(Oc2ccc(OCCCN3CCCCC3)cc2)CC1 [Example 1, 4-{4-[3-(piperidin-1-yl)-propoxy]-phenoxy}-piperidine-1-carboxylic acid tert-butyl ester]",10 to 50 nM,–
"c1cc(OC2CCNCC2)ccc1OCCCN1CCCCC1 [Example 2, 1-{3-[4-(piperidin-4-yl-oxy)-phenoxy]-propyl}-piperidine dihydrochloride salt]",10 to 50 nM,–
"O=C(C1CCC1)N1CCC(Oc2ccc(OCCCN3CCCCC3)cc2)CC1 [Example 4, Cyclobutyl-(4-{4-[3-(piperidin-1-yl)-propoxy]-phenoxy}-piperidin-1-yl)-methanone hydrochloride salt]",10 to 50 nM,–
"CC1(C(=O)N2CCC(Oc3ccc(OCCCN4CCCCC4)cc3)CC2)CC1 [Example 5, (1-methyl-cyclopropyl)-(4-{4-[3-(piperidin-1-yl)-propoxy]-phenoxy}-piperidin-1-yl)-methanon hydrochloride salt]",< 10 nM,–
"CCOC(=O)N1CCC(Oc2ccc(OCCCN3CCCCC3)cc2)CC1 [Example 6, Ethyl-4-{4-[3-(piperidin-1-yl)-propoxy]-phenoxy}-piperidine-1-carboxylate hydrochloride salt]",10 to 50 nM,–
"CC(=O)N1CCC(Oc2ccc(OCCCN3CCC[C@H]3C)cc2)CC1 [Example 11, 1-[4-(4-{3-[(2R)-2-methyl-pyrrolidin-1-yl]-propoxy}-phenoxy)-piperidin-1-yl]-ethanone hydrochloride salt]",10 to 50 nM,"extracellular ACh ([4]; simultaneous administration of 0.5 mg/kg donepezil and 0.5 or 1 mg/kg Compound 11, MPFC and HC): supra-additive increase; ACh levels [4, 7]: No significant changes; HA release evoked by Compound 11 ([5]; simultaneous administration with donepezil): not changed; extracellular HA level [5, 7]: rapid and expressed increase; plasma and brain levels [6]: did not change"
